Measurements as given in patent US7317038B2, “Nerve regeneration promoters containing semaphorin inhibitor as the active ingredient” (Dainippon Sumitomo Pharma Co., Ltd., priority 2000, dated 2008).
“Also recorded” adds a separate entry of the source.

Key:
[1] = target: T1, binding of Sema3A and Neuropilin-1 (Mus musculus, UniProt O08665); assay: Sema3A-receptor-binding experiment (Sema3A-AP to Neuropilin-1 expressing COS7 cells); conditions: SPF-3059-1 0 to 10 μg/ml
T1 construct: alkaline phosphatase was fused from the 758th amino acid to the C terminal side in said Sema3A; expressed in transfected cells; host or cells: COS7
T1 sequence (O08665 21-758 limits assumed): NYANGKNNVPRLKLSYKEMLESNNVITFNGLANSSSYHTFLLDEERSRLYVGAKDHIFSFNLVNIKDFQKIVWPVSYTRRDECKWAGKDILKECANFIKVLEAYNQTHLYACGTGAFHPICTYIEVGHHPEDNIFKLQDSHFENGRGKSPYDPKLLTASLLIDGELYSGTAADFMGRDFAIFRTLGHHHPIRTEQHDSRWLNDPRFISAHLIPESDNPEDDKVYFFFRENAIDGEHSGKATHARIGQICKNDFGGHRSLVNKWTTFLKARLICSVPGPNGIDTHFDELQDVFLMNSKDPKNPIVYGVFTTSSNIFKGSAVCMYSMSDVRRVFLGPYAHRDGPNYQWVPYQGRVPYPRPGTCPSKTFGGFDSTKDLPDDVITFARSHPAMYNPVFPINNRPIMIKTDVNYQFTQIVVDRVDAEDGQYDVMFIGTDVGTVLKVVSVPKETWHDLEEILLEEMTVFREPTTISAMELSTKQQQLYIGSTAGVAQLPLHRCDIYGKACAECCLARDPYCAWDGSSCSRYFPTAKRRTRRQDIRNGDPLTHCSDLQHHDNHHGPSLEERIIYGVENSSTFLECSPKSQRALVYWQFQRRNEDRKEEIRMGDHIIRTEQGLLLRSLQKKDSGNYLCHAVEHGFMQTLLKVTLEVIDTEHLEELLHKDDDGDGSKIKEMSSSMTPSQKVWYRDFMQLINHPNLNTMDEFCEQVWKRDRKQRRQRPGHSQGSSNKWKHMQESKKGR
Source text: Whether SPF-3059-1 inhibits the binding of Sema3A and Neuropilin-1, which is a component constituting Sema3A receptor complex, was examined in the receptor-binding experiment. Neuropilin-1 and plexin Al are currently known as constituting components of Sema3A receptors. However, mainly Neuropilin-1 is known to contribute to Sema3A binding. Sema3A fused with alkaline phosphatase (human-derived: heat-resistance) (Sema3A-AP) was used as a ligand in the receptor-binding experiment and the amount bound to the receptor was detected with the alkaline phosphatase activity as an index. Mouse-derived Sema3A was used. A recombinant gene was generated in which alkaline phosphatase was fused from the 758th amino acid to the C terminal side in said Sema3A. This recombinant gene was then introduced into a COS7 cell where it was expressed and secreted and Sema3A-AP was prepared.
The receptor-binding experiment was performed as described below. The Neuropilin-1 expressing plasmid (pUCSRα-Neuropilin-1) was introduced into COS7 cells and cultivated for 24 hours. These cells express Neuropilin-1 on the cell surface. […] The alkaline phosphatase activity derived from Sema3A-AP in the cell extract (=binding amount of Sema3A-AP) was determined. […] The solution was then measured for its absorbance at 405 nm (p-nitrophenol: generated from p-nitirophenyl phosphate with alkaline phosphatase).

[2] = system: spinal cord injury model adult rats; assay: In vivo nerve regeneration after transection of the spinal nerve (cerebral cortex-spinal cord tract); conditions: rat; 0.6 μg/day for four consecutive weeks
Protocol: Male Wister rats (10-week-old) were purchased from Charles River Japan, Inc. and bred under free feeding and water uptake in a dedicated breeding room. They were used in the experiment after about one week of pre-breeding. SPF-3059-1 was prepared to 0.1 mg/ml with PBS. PBS was used as a control. The agent was filled in an osmotic pressure pump (Alzet, model 2004, dosage for four weeks, flow rate 0.25 μl/hr). A cannula filled with the sample solution etc. was connected to the pump and pre-incubated in saline overnight at room temperature.
A rat was intrapenitrially injected with pentbarbital (50 mg/kg). Skin and muscles in dorsal thoracic spinal cord region of the anesthetized rat were incised and the T8-T12 vertebras were exposed. Laminectomy was carried out for the T11 thoracic vertebra under the microscope. A pair of ophthalmologic scissors attached to the manipulator was punctured and inserted across the median line into the depth of 1.5 mm from the duramater surface, and the cerebral cortex-spinal cord pathway was incised and separated. The vertebra opening was filled with a spongel. Cannulation was performed from the T9 vertebra which was perforated with a surgical drill to expose the duramater. The part of the duramater, to which a cannula was to be inserted, was perforated with an injection needle and the silicon tube connected with the pump was inserted therein. […]

CC(=O)c1c(C)c(C(=O)C2COc3cc(O)c(O)c(C(=O)O)c3C2=O)cc2c(=O)c3c(C(=O)O)c(O)c(O)cc3oc12 (centres unmarked) [SPF-3059-1]
binding of Sema3A-AP to Neuropilin-1 expressing COS7 cells [1]: decrease in a concentration-dependent manner; also recorded: inhibits the binding of Sema3A-AP to Neuropilin-1 in a concentration-dependent manner | nerve-regeneration promoting action after spinal nerve incision (DBA-positive fibers) [2]: has the nerve-regeneration promoting action
